Data reported in paper PMC4848905, “Fragment Screening of Human Aquaporin 1” (International Journal of Molecular Sciences, 2016).

Legend:
[1] = biological target: T1, hAQP1 (Homo sapiens, UniProt P29972); parameters: method as in PMID 26028295; conditions: 30 µM; cited from earlier work
T1 construct: made in house; host or cells: Spodoptera frugiperda (Sf9) insect cells, baculovirus vector pFB-LIC-Bse
T1 sequence (P29972 1-269): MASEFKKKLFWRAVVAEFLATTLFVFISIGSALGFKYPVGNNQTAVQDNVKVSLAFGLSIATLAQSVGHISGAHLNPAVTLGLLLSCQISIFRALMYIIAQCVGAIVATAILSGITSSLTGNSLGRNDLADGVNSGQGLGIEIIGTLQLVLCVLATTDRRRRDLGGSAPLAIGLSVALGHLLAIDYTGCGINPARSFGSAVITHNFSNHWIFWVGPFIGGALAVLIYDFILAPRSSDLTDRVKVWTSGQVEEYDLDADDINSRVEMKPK

[2] = tested on: human red blood cells; parameters: method as in PMID 26028295; conditions: cited from earlier work
[3] = biological target: the molecule itself; experiment: SEC; gel filtration on HiLoad 16/600 Superdex 200 prep grade at 4 °C; 20 mM Tris-HCl pH 8, 300 mM NaCl, 1% OG; major peak at 70 mL
[4] = biological target: the molecule itself; experiment: native gel or EMSA; blue-native PAGE (4%-16% Bis-Tris gel, 4 °C) of purified protein in sample buffer with 100 mM OG, 750 mM aminocaproic acid, 50 mM Bis-Tris HCl pH 7.0, 0.5 mM EDTA
[5] = biological target: T2, E. coli aquaporin Z (E. coli), P60844; experiment: as above; conditions: remark: other sources report otherwise
T2 chain: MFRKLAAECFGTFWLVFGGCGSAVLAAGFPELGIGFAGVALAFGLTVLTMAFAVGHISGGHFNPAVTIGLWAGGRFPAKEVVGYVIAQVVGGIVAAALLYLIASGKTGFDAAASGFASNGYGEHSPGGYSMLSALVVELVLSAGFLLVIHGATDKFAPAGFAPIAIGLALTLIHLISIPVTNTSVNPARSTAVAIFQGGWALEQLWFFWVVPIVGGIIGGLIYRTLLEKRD

O=[N+]([O-])c1ccc2c(c1)/C(=N/N=C1c3ccccc3Cc3ccccc31)c1cc([N+](=O)[O-])cc([N+](=O)[O-])c1-2 [NSC658139]
stabilization of hAQP1 [1]: ≤ 13 °C
overall amplitude of the traces [2]: strong reduction in overall amplitude
rate constant in the RBC assays [2]: did not reduce the rate constant

B1: human aquaporin 1 (6His-TEV-hAQP1) (natural protein, UniProt P29972 1-269, looked up)
chain: MASEFKKKLFWRAVVAEFLATTLFVFISIGSALGFKYPVGNNQTAVQDNVKVSLAFGLSIATLAQSVGHISGAHLNPAVTLGLLLSCQISIFRALMYIIAQCVGAIVATAILSGITSSLTGNSLGRNDLADGVNSGQGLGIEIIGTLQLVLCVLATTDRRRRDLGGSAPLAIGLSVALGHLLAIDYTGCGINPARSFGSAVITHNFSNHWIFWVGPFIGGALAVLIYDFILAPRSSDLTDRVKVWTSGQVEEYDLDADDINSRVEMKPK
notes: human aquaporin 1, full-length cDNA cloned in pFB-LIC-Bse downstream of an N-terminal 6His and TEV protease cleavage site; No TEV cleavage is described; An octamer band is also assigned in BN-PAGE; also called recombinant hAQP1; source: Sf9 (Spodoptera frugiperda) insect cells, purified (Ni-NTA, gel filtration) in n-octyl-β-D-glucopyranoside
stoichiometry N [3]: 4
stoichiometry N [4]: 8

B2: E. coli aquaporin Z, P60844 1-231 (natural protein)
chain: MFRKLAAECFGTFWLVFGGCGSAVLAAGFPELGIGFAGVALAFGLTVLTMAFAVGHISGGHFNPAVTIGLWAGGRFPAKEVVGYVIAQVVGGIVAAALLYLIASGKTGFDAAASGFASNGYGEHSPGGYSMLSALVVELVLSAGFLLVIHGATDKFAPAGFAPIAIGLALTLIHLISIPVTNTSVNPARSTAVAIFQGGWALEQLWFFWVVPIVGGIIGGLIYRTLLEKRD
stoichiometry N [5]: 8
